# No end group written: not given here. *: point of attachment. Palmitoyl = CCCCCCCCCCCCCCCC(=O)*
# Experiments:
# [1] = system: Bone marrow derived dendritic cells (BMDC); assay: DQ-OVA uptake and processing by bone marrow derived dendritic cells (flow cytometry); type: cell-based, mouse; conditions: for uptake and processing of DQ-OVA by DC (fluorescence): 37° C., versus DQ-OVA in media alone
# Method: FIG. 1 provides a graph showing that DOTAP enhancement of antigen processing is specific for dendritic cells. Bone marrow derived dendritic cells were incubated with DQ-OVA in the presence of various concentrations of DOTAP as shown. In addition, a mouse epithelial cell line, TC1, was treated in an identical fashion.
# FIG. 2 provides fluorescence readings for receptor mediated uptake. R-DOTAP nanoparticles, but not MPL stimulate uptake and processing by DC within 10 minutes. Mouse bone marrow DC were incubated in the presence of fluorescent DQ-OVA for one hour at either 37° C. or 4° C./azide in the presence of 25 uM DOTAP nanoparticles, 10 ug/ml MPL or media alone, and analyzed by flow cytometry. On the presented density plot, the y-axis represents the amount of green fluorescence which results from uptake and processing of the protein, while the x-axis represents the amount of red fluorescence resulting from concentration in endosomal vesicles.
# To determine the effects of cationic lipids on antigen uptake and processing by dendritic cells, a fluorescent ovalbumin protein called DQ-OVA was used. DQ-OVA is non-fluorescent when intact, but emits both red and green fluorescence when the protein is degraded. Dendritic cells were grown from mouse bone marrow by culturing for 8 days in GMCSF+IL-4 (hereafter referred to as BMDC). BMDC were incubated at 37° C. or 4° C. for 1 hour with DQ-OVA alone, or DQ-OVA mixed with different concentrations of the cationic lipid R-DOTAP. The cells were then washed, fixed, and stained with fluorescent antibodies to CD11c, a marker for dendritic cells. Cells were then analyzed on an LSRII flow cytometer in both red and green fluorescent channels.
# To determine whether non-cationic lipid adjuvants could mediate the same effect as DOTAP, BMDC were incubated with DQ-OVA in media alone or with DOTAP as described for FIG. 1. In addition, BMDC were incubated under identical conditions with the potent lipid adjuvant […] (MPL).
# [2] = system: OT1 splenocytes (TCR transgenic T cells specific for SIINFEKL); assay: Cross-presentation of OVA by DC to MHC class I restricted OT-1 T cells (3H-thymidine uptake); type: cell-based, mouse; conditions: whole OVA protein, 25 uM lipid, 37° C., versus OVA without cationic lipid
# Method: FIG. 3: R-DOTAP enhancement of antigen processing results in enhancement of cross-presentation to MHC class I restricted T cells. Bone marrow derived DC were incubated in the presence of various concentrations of whole OVA protein and 25 uM DOTAP or DOTMA for 30 min at 37° C. or 4° C.
# In order to verify that the cationic lipid facilitated uptake of antigen translates into enhanced antigen presentation on MHC class I (cross presentation), T cells from a TCR transgenic mouse (OT-1) were utilized in which all T cells are specific for an internal peptide of OVA. These T-cells will only proliferate if presented with DCs which have processed OVA and presented an OVA peptide on MHC class I molecules. Thus, this represents a stringent assay for cross-presentation. BMDC were incubated with different concentrations of the whole OVA protein in the presence or absence of two cationic lipids, either DOTAP or DOTMA for 1 hour at 37° C. The DCs were then washed, fixed and added to the OVA peptide specific T-cells. […] This response was dose dependent with respect to the OVA concentration, and was even apparent when DC were incubated with OVA at 4° C.
# [3] = system: HPV16-positive TC-1 tumors; assay: Regression of established TC-1 tumors, R- versus S-DOTAP, administered Day 6; type: in vivo, mice; conditions: 1×10E^5 TC-1 cells day 0, administered on Day 6
# Method: Effect of R-DOTAP (solid squares), R-DOTAP/HPV16-E7 (clear squares) and S-DOTAP/HPV16-E7 (solid circles) vaccination on regression of established HPV16-positive TC-1 tumors. The HPV16 E7 peptide used in the vaccine (SEQ ID NO: 2) is labelled KF18. Tumor volumes were measured using calipers.
# R-DOTAP only, R-DOTAP/HPV16 E7 (SEQ ID NO: 2) and S-DOTAP/HPV16 E7 (SEQ ID NO: 2) were administered on Day 6 after tumor implantation.
# [4] = system: T regulatory cells (CD45+CD3+CD4+CD25+Foxp3+) in tumor; assay: Regulatory T cell population within TC-1 tumors (flow cytometry); type: in vivo, C57 mice; conditions: Day 19, within 1 week of vaccination (Day 12)
# Method: FIG. 6: provides a graph showing that R-DOTAP and R-DOTAP+antigen uniquely reduce the population of regulatory T cells within the tumors after vaccination. 1×10^5 cells implanted subcutaneously on the right side of the abdomen of female B6 mice on day 0 and were vaccinated on day 12 and on day 19 post Tumor implant. T regulatory cells (CD45+CD3+CD4+CD25+Foxp3+) cells infiltrated into tumors on day 19. The reduction is calculated as the ratio of total T reg cells in tumor/average T reg cell in tumor and normalized to T reg cells in naïve mouse. Data represents mean±SEM of 4-5 mice in each group. * Statistically significant R-DOTAP+antigen compared to all other groups (other than R-DOTAP only). P<0.01.
# C57 mice were divided into the following groups of 8 mice per group: • Group 1: R-DOTAP+KF18 (SEQ ID NO: 2) • Group 2: GM-CSF+KF18 (SEQ ID NO: 2) • Group 3: R-DOTAP • Group 4: GM-CSF • Group 5: KF18 (SEQ ID NO: 2) • Group 6: Naïve mice (tumor bearing and untreated). • 1×10E^5 TC-1 tumor cells were injected into the flank of the mice on day 0. The various formulations were administered on Days 12 and 19 after tumor implantation. […]
# [5] = system: CFSE labeled lymphocytes in popliteal LN; assay: Lymph node homing of CFSE labeled adoptively transferred spleen cells, with or without pertussis toxin; type: in vivo, B6 mice; conditions: after 16 h
# Description: The primary objective of the current experiment was to understand if T-cell infiltration induced by R-DOTAP is chemokine dependent. We utilized 5 mice to perform the study, and visualized the homing of CFSE labeled adoptively transferred cells. The study included a population of cells that had been treated in vitro with pertussis toxin to inactivate chemokine receptors. Pertussis toxin-treated and untreated cells were labeled with two different concentrations of CFSE so that they could be distinguished by flow cytometry.
# Spleen cells were prepared from a single B6 mouse and divided in half. Half of the cells were treated with Pertussis toxin 100 ng/ml for 1 hour at 37° C. and washed. The two cell populations were then labeled with CFSE at two different concentrations so they could be distinguished by flow cytometry, and mixed together. The mix (10e7 cells) was injected i.v. into the tail vein of 5 B6 mice. The mice were then anesthetized and injected in the footpad with either sucrose (right footpad) or R-DOTAP (left footpad, 50 ul, 600 nmoles).
# After 16 h, the mice were sacrificed and the popliteal LN and spleens harvested. The total cells recovered from left and right nodes from each mouse were counted.
# [6] = system: T-cells and total lymphocytes in popliteal lymph nodes; assay: T-cell and lymphocyte infiltration into draining lymph nodes after foot pad injection; type: in vivo, mice
# Description: FIG. 10 provides a graph showing that R-DOTAP injection induces the migration of lymphocytes including T-lymphocytes into the draining lymph nodes. […] R-DOTAP injection is represented by striped bars, and the control is represented by shaded bars.
# To better understand the ability of T-cell activating cationic lipids such as R-DOTAP to promote the induction of the effector CD8+ T-cells, which are also critical in altering the tumor's microenvironment, the impact of R-DOTAP vaccination on B and T-cells was studied. 12 mM R-DOTAP or sucrose as control were injected into the right and left foot pad respectively of mice and the influx of T-cells and total lymphocytes into the draining lymph nodes were quantified by flow cytometry. In this experiment, 15 hours after vaccination the popliteal lymph nodes were removed and analysis performed. […] Five mice were used per study.
# [7] = system: HPV16-specific CD8+ T-cells; assay: HPV16-specific CD8+ T-cell induction after vaccination, ELISPOT of splenocytes; type: in vivo, C57 black mice; conditions: given with KF18 HPV peptide, vaccinated Day 0 and Day 7, splenocytes Day 14, stimulated with RAHYNIVTF
# Description: Effect of HPV16-E7, R-DOTAP/HPV16-E7, S-DOTAP/HPV16-E7 and Alum/MPL/HPV16-E7 vaccination on HPV16-specific CD8+ T-cell induction by ELISpot. The HPV16 E7 peptide used in the vaccine (SEQ ID NO: 2) is labelled KF18.
# C57 black mice were vaccinated with various formulations: • Group 1: KF18 HPV peptide • Group 2: KF18 HPV peptide+R-DOTAP liposomes • Group 3: KF18 HPV peptide+S-DOTAP liposomes • Group 4: KF18 peptide+MPL/Alum adjuvant • *For each of the groups above, the KF18 HPV peptide corresponds to Palmitoyl-KSS-[…] (SEQ ID NO: 2)
# 5 mice per group were injected with the various formulations. The mice were vaccinated on Day 0 and Day 7 and sacrificed on Day 14. The splenocytes were removed and ELISPOT studies performed. The splenocytes were stimulated with the peptide […] (SEQ ID NO: 3), the HPV16 CD8+ T-cell epitope peptide recognized by the C57 mice.
# HPV-positive TC-1 tumors = assay: Regression of established TC-1 tumors, vaccination Days 12 and 19; type: in vivo, C57 mice
# Method: Tumors were implanted on Day 0 and the mice vaccinated on Days 12 and 19. Tumor volumes were measured using calipers. The naïve mice group are tumor bearing mice that remained untreated. […] P<0.01.
# C57 mice were divided into the following groups of 8 mice per group: • Group 1: R-DOTAP+KF18 (SEQ ID NO: 2) • Group 2: GM-CSF+KF18 (SEQ ID NO: 2) • Group 3: R-DOTAP • Group 4: GM-CSF • Group 5: KF18 (SEQ ID NO: 2) • Group 6: Naïve mice (tumor bearing and untreated). • 1×10E^5 TC-1 tumor cells were injected into the flank of the mice on day 0. The various formulations were administered on Days 12 and 19 after tumor implantation.
# The third group of animals who were treated with either R-DOTAP alone or GM-CSF alone without antigen, or left untreated (Treg/CD8+ ratio >30) had tumor volumes of 300-700 mm^3.
molecule,measurement,setting,value
"CCCCCCCC/C=C\CCCCCCCC(=O)OCC(C[N+](C)(C)C)OC(=O)CCCCCCC/C=C\CCCCCCCC (stereo not shown) [DOTAP, 1,2-dioleoyl-3-trimethylammonium propane]",uptake of DQ-OVA by DC at 4° C.,"[1]; BMDC with DQ-OVA, 1 hour, 4° C.",Significant uptake
same,uptake and processing of DQ-OVA by DC (fluorescence),"[1]; BMDC with DQ-OVA, 1 hour",significant increase of fluorescence
same,concentration showing the greatest effect on DQ-OVA uptake,[1]; concentration dependent effect in BMDC,50 µM
same,cross-presentation of OVA antigen by DC to CD8+ T cells,[2],much more efficiently
"CCCCCCCC/C=C\CCCCCCCC(=O)OCC(C[N+](C)(C)C)OC(=O)CCCCCCC/C=C\CCCCCCCC (stereo not shown) [R-DOTAP, 1,2-dioleoyl-3-trimethylammonium propane]",time within which uptake and processing by DC is stimulated,"[1]; 25 uM DOTAP nanoparticles, FIG. 2 legend",≤ 10 min
same,uptake and processing of DQ-OVA by DC (fluorescence),"[1]; BMDC with DQ-OVA, 1 hour",greatly enhanced
same,anti-tumor effect on established TC-1 tumors,[3],lack of regression or inhibition of growth
same,reduction in the Treg population within the tumors,[4],about 20%
same,infiltration of pertussis toxin treated CFSE labeled cells into the lymph node,[5]; cells treated with Pertussis toxin 100 ng/ml,did not occur
same,infiltration of transferred CFSE labeled lymphocytes into the lymph node,"[5]; untreated cells, footpad 50 ul, 600 nmoles",infiltrated the lymph node
same,infiltration of T-cells into the draining lymph node,"[6]; 12 mM, foot pad, 15 hours after vaccination, sucrose as control",significant infiltration of T-cells into the lymph node
same,lymphocyte infiltration into the lymph nodes over time,"[6]; 5 hours, 16 hours, 3 days and 4 days",increase over the 4-day period
same,HPV-specific CD8+ T-cell response (ELISPOT),[7],effective in inducing strong HPV-specific CD8+ T-cell responses
"CCCCCCCC/C=C\CCCCCCCC(=O)OCC(C[N+](C)(C)C)OC(=O)CCCCCCC/C=C\CCCCCCCC (stereo not shown) [S-DOTAP, 1,2-dioleoyl-3-trimethylammonium propane]",uptake and processing of DQ-OVA by DC (fluorescence),"[1]; BMDC with DQ-OVA, 1 hour",no difference
same,HPV-specific CD8+ T-cell response (ELISPOT),[7],did not result in an enhanced CD8+ T-cell response beyond what was seen with the peptide alone
"Monophorphoryl lipid-A [MPL, reference compound]",uptake and processing of DQ-OVA by DC (fluorescence),"[1]; BMDC with DQ-OVA, 1 hour",no such enhancement
same,HPV-specific CD8+ T-cell response (ELISPOT),[7],significantly lower CD8+ T-cell response compared to R-DOTAP
Palmitoyl-KSS-GQAEPDRAHYNIVTF (Palmitoyl-KSSGQAEPDRAHYNIVTF) [KF18],tumor volume,"HPV-positive TC-1 tumors; vaccinated Days 12 and 19, Day 26",about 200 mm^3
same,tumor regression / elimination,"HPV-positive TC-1 tumors; vaccinated Days 12 and 19, by Day 26",did not induce any tumor regression but rather inhibited tumor growth
